How the values were obtained:
CDK9 = CDK9 (Homo sapiens (Human), UniProt P50750); experiment: In vitro kinase inhibition, KinaseProfiler service of Millipore, residual activity; assay type: biochemical
Text: (§1) In vitro kinase assay analysis may be performed using standard techniques described in the art. These techniques are also used by commercial services providers in order to offer in vitro kinase activity assay services, e.g. the assays offered by Millipore Inc. (worldwide website www(dot)millipore.com), ProQinase GmbH (worldwide website www(dot)proqinase.de) and others.
In vitro kinase inhibition results shown in columns 7 to 9 in Table 1 were obtained by employing the KinaseProfiler™ service of Millipore and used to select compounds displaying specificity for CDK9. Specifically, it was intended to distinguish the CDK9-specific compounds from other compounds having significant inhibitory potency also with regard to other CDKs.

CDK2/CycA = CDK2/CycA (Homo sapiens (Human), UniProt P24941); experiment: Kinase activity assay IC50 profile; assay type: biochemical
Method: as §1
(§2) On the day of the kinase inhibition assay, 451 μl H2O were added to each well of a set of compound dilution plates. To minimize precipitation, the H2O was added to the plates only a few minutes before the transfer of the compound solutions into the assay plates. The plates were shaken thoroughly, resulting in “compound dilution plates/10%/DMSO” with a concentration of 1×10^−03 M/10% DMSO to 3×10^−08 M/10% DMSO in semilog steps. These plates were used for the transfer of 5 μl compound solution into the “assay plates”. The compound dilution plates were discarded at the end of the working day. For the assays (see below), 5 μl solution from each well of the compound dilution plates were transferred into the assay plates. The final volume of the assay was 50 μl. […]
(§3) The median value of the counts in column 1 (n=8) of each assay plate was defined as “low control”. This value reflects unspecific binding of radioactivity to the plate in the absence of a protein kinase but in the presence of the substrate. […]

CDK5/p35NCK = CDK5/p35NCK (Homo sapiens (Human), UniProt Q00535); experiment: Kinase activity assay IC50 profile; assay type: biochemical; conditions: read-out: IC50 CDK5/p35
Method: as §1, §2, §3

CDK1/CycB = CDK1/CycB (Homo sapiens (Human), UniProt P06493); experiment: Kinase activity assay IC50 profile; assay type: biochemical; conditions: read-out: IC50 CDK1/B
Method: as §1, §2, §3

CDK3/CycE = CDK3/CycE (Homo sapiens (Human), UniProt Q00526); experiment: Kinase activity assay IC50 profile; assay type: biochemical; conditions: read-out: IC50 CDK3/E
Chain of CDK3/CycE (Q00526 whole entry): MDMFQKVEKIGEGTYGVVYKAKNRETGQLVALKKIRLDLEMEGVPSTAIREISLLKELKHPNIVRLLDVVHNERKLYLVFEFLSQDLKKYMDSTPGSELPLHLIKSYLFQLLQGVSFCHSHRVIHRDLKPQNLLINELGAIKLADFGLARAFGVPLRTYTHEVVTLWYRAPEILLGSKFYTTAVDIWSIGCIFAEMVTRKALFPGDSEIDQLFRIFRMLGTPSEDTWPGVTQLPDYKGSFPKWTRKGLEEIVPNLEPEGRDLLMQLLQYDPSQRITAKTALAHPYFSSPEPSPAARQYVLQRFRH
Chain of CDK3/CycE (P24864 whole entry partner): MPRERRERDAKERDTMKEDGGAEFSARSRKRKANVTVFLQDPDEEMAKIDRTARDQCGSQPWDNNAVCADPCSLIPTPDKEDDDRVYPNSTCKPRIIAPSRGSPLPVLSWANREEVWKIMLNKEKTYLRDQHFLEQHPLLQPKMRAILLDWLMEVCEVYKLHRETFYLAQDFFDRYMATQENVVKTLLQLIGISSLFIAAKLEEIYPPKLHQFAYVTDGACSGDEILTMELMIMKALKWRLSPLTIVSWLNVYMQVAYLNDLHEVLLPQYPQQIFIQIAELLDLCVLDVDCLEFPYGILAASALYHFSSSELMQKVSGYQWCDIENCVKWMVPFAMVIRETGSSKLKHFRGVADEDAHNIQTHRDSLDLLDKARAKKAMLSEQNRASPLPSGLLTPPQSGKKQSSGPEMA
Method: as §1, §2, §3

GSK3-beta = GSK3-beta (Homo sapiens (Human), UniProt P49841); experiment: Kinase activity assay IC50 profile; assay type: biochemical; conditions: read-out: IC50 GSK3b
Chain of GSK3-beta (P49841 whole entry): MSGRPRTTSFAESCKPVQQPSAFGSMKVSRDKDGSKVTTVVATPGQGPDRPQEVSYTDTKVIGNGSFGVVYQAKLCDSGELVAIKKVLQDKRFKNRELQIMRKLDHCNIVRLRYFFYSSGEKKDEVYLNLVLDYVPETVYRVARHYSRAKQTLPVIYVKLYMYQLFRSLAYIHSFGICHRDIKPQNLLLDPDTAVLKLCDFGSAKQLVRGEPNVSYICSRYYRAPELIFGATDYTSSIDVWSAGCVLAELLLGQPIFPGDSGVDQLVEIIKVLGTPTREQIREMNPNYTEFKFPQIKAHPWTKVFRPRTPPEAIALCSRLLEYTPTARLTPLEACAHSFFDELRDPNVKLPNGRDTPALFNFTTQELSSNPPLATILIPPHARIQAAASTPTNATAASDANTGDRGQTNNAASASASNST
Method: as §1
(§4) On the day of the kinase inhibition assay, 451 μl H2O were added to each well of a set of compound dilution plates. To minimize precipitation, the H2O was added to the plates only a few minutes before the transfer of the compound solutions into the assay plates. The plates were shaken thoroughly, resulting in “compound dilution plates/10%/DMSO” with a concentration of 1×10^−03 M/10% DMSO to 3×10^−08 M/10% DMSO in semilog steps. These plates were used for the transfer of 5 μl compound solution into the “assay plates”. The compound dilution plates were discarded at the end of the working day. For the assays (see below), 5 μl solution from each well of the compound dilution plates were transferred into the assay plates. The final volume of the assay was 50 μl. All compounds were tested at 10 final assay concentrations in the range from 1×10^−04 M to 3×10^−09 M. The final DMSO concentration in the reaction mixtures was 1% in all cases.
(§5) All kinase assays were performed in 96-well FlashPlates™ from Perkin Elmer/NEN (Boston, Mass., USA) in a 50 μl reaction volume. The reaction mixture was pipetted in four steps in the following order: • 20 μl of assay buffer (standard buffer) • 5 μl of ATP solution (in H2O) • 5 μl of test compound (in 10% DMSO) • 10 μl of substrate/10 μl of enzyme solution (premixed)
(§6) The assay for all enzymes contained 60 mM HEPES-NaOH (pH 7.5), 3 mM MgCl2, 3 mM MnCl2, 3 μM Na-Orthovanadate, 1.2 mM DTT, 50 μg/ml PEG2000, 1 μM [^33P]-ATP (approx. 5 ×1005 cpm per well).
(§7) Reaction mixtures were incubated at 30° C. for 80 min. The reaction was stopped with 50 μl of 2% (v/v) H3PO4, plates were aspirated and washed two times with 200 μl H2O or 200 μl 0.9% (w/v) NaCl. Incorporation of ^33P was determined with a microplate scintillation counter (Microbeta, Wallac).
(§8) The median value of the counts in column 1 (n=8) of each assay plate was defined as “low control”. This value reflects unspecific binding of radioactivity to the plate in the absence of a protein kinase but in the presence of the substrate. […] The residual activity (in %) for each well of a particular plate was calculated by using the following formula: Res. Activity(%)=100×[(cpm of compound−low control)/(high control−low control)]
(§9) The residual activities for each concentration and the compound IC50 values were calculated using Quattro Workflow V2.0.1.3 (Quattro Research GmbH, Munich, Germany; worldwide website www(dot)quattro-research.com). […]

GSK3-alpha = GSK3-alpha (Homo sapiens (Human), UniProt P49840); experiment: Kinase activity assay IC50 profile; assay type: biochemical; conditions: read-out: IC50 GSK3a
Chain of GSK3-alpha (P49840 whole entry): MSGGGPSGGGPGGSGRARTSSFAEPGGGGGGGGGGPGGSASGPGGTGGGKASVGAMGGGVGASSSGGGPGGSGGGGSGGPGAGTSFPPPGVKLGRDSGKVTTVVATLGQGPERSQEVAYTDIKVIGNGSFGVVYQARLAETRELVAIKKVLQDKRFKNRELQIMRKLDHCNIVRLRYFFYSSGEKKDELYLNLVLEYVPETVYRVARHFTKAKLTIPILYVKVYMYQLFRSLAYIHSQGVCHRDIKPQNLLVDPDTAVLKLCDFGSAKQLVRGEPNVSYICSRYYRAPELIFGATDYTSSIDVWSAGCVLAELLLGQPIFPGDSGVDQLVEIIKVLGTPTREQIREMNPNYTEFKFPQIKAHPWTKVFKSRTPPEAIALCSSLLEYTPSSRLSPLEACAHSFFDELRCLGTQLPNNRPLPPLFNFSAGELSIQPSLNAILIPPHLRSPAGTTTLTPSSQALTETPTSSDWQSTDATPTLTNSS
Method: as §1, §4, §5, §6, §7, §8, §9

CDK7/CycH/MAT1 = CDK7/CycH/MAT1 (Homo sapiens (Human), UniProt P50613); experiment: Kinase activity assay IC50 profile; assay type: biochemical; conditions: read-out: IC50 CDK7/H/MAT1
Chain of CDK7/CycH/MAT1 (P50613 whole entry): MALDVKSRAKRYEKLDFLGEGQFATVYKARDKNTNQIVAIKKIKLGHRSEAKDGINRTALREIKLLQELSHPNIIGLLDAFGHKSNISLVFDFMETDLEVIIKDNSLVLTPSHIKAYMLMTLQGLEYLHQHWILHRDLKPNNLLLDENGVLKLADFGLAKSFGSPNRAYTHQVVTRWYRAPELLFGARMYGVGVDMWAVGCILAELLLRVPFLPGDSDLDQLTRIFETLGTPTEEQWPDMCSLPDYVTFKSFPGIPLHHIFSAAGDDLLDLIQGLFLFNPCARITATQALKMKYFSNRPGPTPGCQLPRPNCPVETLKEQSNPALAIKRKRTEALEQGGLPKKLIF
Chain of CDK7/CycH/MAT1 (P51946 whole entry partner): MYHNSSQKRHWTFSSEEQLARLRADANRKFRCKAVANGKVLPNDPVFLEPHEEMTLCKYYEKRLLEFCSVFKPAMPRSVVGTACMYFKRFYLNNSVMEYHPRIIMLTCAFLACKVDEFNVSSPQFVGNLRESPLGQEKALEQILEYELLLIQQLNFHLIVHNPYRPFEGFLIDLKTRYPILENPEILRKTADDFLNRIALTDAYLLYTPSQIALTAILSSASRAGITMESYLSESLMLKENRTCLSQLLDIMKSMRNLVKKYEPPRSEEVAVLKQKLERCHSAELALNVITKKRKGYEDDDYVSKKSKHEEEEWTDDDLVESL
Chain of CDK7/CycH/MAT1 (P51948 whole entry partner): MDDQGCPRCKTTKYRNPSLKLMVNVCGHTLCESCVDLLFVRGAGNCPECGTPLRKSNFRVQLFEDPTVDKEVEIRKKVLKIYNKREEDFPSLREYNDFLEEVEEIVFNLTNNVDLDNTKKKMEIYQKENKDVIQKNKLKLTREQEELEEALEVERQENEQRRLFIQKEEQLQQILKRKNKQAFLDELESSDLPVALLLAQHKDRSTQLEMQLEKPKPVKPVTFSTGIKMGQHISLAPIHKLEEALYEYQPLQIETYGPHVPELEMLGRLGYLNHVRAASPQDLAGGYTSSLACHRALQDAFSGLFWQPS
Method: as §1, §4, §5, §6, §7, §8, §9

IRAK1 = IRAK1 (Homo sapiens (Human), UniProt P51617); experiment: Kinase activity assay IC50 profile; assay type: biochemical
Chain of IRAK1 (P51617 whole entry): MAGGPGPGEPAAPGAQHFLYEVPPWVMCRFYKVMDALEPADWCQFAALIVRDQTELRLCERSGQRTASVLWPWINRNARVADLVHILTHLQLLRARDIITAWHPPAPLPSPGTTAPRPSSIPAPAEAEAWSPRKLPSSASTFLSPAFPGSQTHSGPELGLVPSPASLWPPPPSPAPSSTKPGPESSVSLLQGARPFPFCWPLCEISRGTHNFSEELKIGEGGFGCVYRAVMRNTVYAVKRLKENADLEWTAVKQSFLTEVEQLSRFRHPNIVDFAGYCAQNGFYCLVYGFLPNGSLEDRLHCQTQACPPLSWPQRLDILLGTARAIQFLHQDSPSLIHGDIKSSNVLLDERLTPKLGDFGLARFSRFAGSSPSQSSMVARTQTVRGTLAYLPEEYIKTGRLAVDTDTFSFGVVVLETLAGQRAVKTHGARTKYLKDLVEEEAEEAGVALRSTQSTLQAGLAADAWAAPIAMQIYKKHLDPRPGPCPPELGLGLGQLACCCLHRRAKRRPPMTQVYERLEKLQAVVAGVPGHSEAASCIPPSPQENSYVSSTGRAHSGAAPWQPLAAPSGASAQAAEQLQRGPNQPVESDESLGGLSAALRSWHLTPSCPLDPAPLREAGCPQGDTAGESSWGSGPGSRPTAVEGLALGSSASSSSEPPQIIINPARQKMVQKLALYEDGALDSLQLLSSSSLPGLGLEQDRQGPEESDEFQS
Method: as §1, §4, §5, §6, §7, §8, §9

CDK6/CycD3 = CDK6/CycD3 (Homo sapiens (Human), UniProt Q00534); experiment: Kinase activity assay IC50 profile; assay type: biochemical; conditions: read-out: IC50 CDK6/D3
[1] = test system: TNF-alpha inducible reporter gene; experiment: Inhibition of TNF-alpha-induced reporter gene expression (luciferase) in HeLa-derived cell line; assay type: cell-based, human; conditions: Homo sapiens, 6 h, remaining luciferase activity in presence of 3 μM of compound as ratio of DMSO-treated cells, TNF-alpha 50 ng/ml, read-out: Efficacy (ratio to DMSO) TNF-alpha induced response
Text: TNF-alpha responsive cell lines like the human HeLa cell line can be used to study cellular responses to TNF-alpha, e.g. transcriptional regulation of a transfected TNF-alpha responsive reporter gene, and effects of kinase inhibitors on this response.
In order to analyse compound effects on TNF-alpha mediated transcriptional response, a HeLa-derived cell line stably transfected with a TNF-alpha inducible reporter gene was used (Panomics Catalog No. RC0013). The cell line was obtained by co-transfection of a luciferase reporter gene (Panomics P/N LR0051) and pHyg into human cervical epithelial HeLa cells, followed by hygromycin selection. TNFα-induced luciferase activity was used to select clones from the hygromycin-resistant cells. The cell line was maintained and stimulated according to the manufacturer's instructions. Briefly, cells were seeded at 5×10^5/well in 1 ml of growth medium in a 12-well plate and incubated in a humidified incubator at 37° C. and 5% CO2 for 24 hours. Medium was replaced with 1 ml of serum free medium and compounds were added up to concentrations of […]. After 1 hour of incubation, TNF-alpha was added to achieve a final concentration of 50 ng/ml. The culture dish was further incubated in a humidified incubator at 37° C. and 5% CO2 for 6 hours, medium was removed and 100 μL of lysis buffer were added to each well and the assay for luciferase activity was performed according to assay manufacturer's (Promega P/N E1500) recommendations. For more information about this cell line, go to worldwide website www(dot)panomics.com.
Compound effects on TNF-alpha-induced reporter gene expression is shown in column 6 in Table 1 given below. Indicated is the remaining luciferase activity after incubation in presence of 3 μM of compound as a ratio of the activity of DMSO-treated cells without compound. Specifically, it was intended to distinguish cell permeable compounds from other compounds having significant inhibitory potency with regard to other CDKs, but fail to penetrate cells or are unstable under the conditions of the experiment.

Chain of CDK9 (P50750 whole entry): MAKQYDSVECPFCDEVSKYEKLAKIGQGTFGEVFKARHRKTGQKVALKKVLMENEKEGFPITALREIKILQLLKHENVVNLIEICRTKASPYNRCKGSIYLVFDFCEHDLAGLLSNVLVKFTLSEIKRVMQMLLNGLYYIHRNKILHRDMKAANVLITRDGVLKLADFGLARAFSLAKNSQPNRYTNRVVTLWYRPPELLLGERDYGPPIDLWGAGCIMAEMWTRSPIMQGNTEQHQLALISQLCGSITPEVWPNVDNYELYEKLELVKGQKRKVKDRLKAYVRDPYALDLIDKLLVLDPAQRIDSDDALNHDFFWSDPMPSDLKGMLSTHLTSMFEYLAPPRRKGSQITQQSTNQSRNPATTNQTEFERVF
Chain of CDK9 (O60563 whole entry partner): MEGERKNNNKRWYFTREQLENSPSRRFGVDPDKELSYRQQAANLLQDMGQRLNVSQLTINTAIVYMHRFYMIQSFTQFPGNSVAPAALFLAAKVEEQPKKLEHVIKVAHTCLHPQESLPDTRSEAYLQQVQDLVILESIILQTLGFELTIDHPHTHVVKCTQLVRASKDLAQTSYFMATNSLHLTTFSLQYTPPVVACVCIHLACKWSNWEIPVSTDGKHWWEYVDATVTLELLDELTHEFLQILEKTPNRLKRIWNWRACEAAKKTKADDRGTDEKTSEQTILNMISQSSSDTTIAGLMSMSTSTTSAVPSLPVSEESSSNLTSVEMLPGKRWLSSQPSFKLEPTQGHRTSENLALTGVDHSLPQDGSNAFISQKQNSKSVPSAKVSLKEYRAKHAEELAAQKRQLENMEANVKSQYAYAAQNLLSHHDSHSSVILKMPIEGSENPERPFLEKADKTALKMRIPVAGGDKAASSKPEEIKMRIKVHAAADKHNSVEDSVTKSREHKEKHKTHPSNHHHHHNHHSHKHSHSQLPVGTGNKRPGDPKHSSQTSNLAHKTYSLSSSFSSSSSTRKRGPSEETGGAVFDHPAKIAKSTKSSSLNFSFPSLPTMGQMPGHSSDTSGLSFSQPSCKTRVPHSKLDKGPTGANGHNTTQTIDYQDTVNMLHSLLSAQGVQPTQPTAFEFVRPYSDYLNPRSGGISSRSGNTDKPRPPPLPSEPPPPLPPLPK

remaining activity at 0.01 µM (CDK9; residual activity at 10 nM compound, read-out: CDK9 10 nM (RA in %)): 29%
remaining activity at 0.1 µM (CDK9; residual activity at 100 nM compound, read-out: CDK9 100 nM (RA in %)): 3%
IC50 (CDK2/CycA): 168 nM
IC50 (CDK5/p35NCK): 1080 nM
IC50 (CDK1/CycB): 94 nM
IC50 (CDK3/CycE): 219 nM
IC50 (GSK3-beta): 903 nM
IC50 (GSK3-alpha): 160 nM
IC50 (CDK7/CycH/MAT1): > 5000 nM
IC50 (IRAK1): > 5000 nM
IC50 (CDK6/CycD3): > 5000 nM
Structure (SMILES): COc1cc(F)ccc1-c1ccnc(NC(=O)[C@H]2CCC[C@@H](NC(C)=O)C2)c1 (relative stereo) [Example 33, cis-3-Acetamido-N-(4-(4-fluoro-2-methoxyphenyl)pyridin-2-yl)cyclo-hexanecarboxamide]
activity at 3 µM [1]: 3%

Reference: US9067888B2, “Inhibitors of protein kinases” (Ingenium Pharmaceuticals GmbH, priority 2010, dated 2015)
